Earlier results on 2 compounds are cited in patent publication US20240401150A1, “PANCREATIC DUCTAL ADENOCARCINOMA SIGNATURES AND USES THEREOF” (The Broad Institute, Inc., priority 2022, published 2024).

For data set [1], the system named is intra-tumoral cytotoxic T cells. Conditions: previously identified (refs 20, 61).
The next data set has as its target CXCR4 (Homo sapiens, UniProt P61073). Conditions: literature (ref 133).

CXCR4, sequence (P61073 whole entry): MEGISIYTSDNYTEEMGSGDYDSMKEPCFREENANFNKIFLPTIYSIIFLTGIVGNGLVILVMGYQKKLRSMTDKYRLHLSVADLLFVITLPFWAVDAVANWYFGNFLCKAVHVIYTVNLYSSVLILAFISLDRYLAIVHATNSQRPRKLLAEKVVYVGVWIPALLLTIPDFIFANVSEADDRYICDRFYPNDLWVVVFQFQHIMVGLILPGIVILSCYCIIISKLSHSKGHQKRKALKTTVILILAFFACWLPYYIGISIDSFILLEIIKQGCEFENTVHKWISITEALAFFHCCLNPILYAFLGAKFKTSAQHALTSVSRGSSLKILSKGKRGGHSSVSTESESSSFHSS

Regarding `CCCCc1nc(Cl)c(CO)n1Cc1ccc(-c2ccccc2-c2nn[nH]n2)cc1` [losartan], in data set [1], the “intra-tumoral cytotoxic T cell activity” value is on record as “increase”.

For the compound `c1cc(CN2CCCNCCNCCCNCC2)ccc1CN1CCCNCCNCCCNCC1` [AMD3100], the “effect of clinical inhibition of CXCR4” value on CXCR4 is given as “integrated immune response^133”.
